Data taken from US20230364074A1, “Compounds and Compositions for Disrupting Programmed Ribosomal Frameshifting” (YALE UNIVERSITY, priority 2020, published 2023).

Tested on: SARS-CoV-2 FSE mutants
Assay type: cell-based

SMILES: CCNCC1CCN(c2c(F)cc3c(=O)c(C(=O)O)cn(CC)c3c2F)C1 (centres unmarked) [merafloxacin, 1-ethyl-7-[3-(ethylaminomethyl)pyrrolidin-1-yl]-6,8-difluoro-4-oxoquinoline-3-carboxylic acid]
- frameshifting inhibition in structure-perturbing FSE mutants: significantly inhibited frameshifting in all variants
- −1 PRF inhibition in naturally occurring FSE variants: inhibited −1 PRF in all variants with similar efficacy
